Laboratory results from patent US10556863B1, “Crystalline form of (R)-4-hydroxy-2-oxo-1-pyrrolidineacetamide, preparation method therefor and use thereof” (CHONGQING RUNZE PHARMACEUTICAL COMPANY LIMITED, priority 2016, dated 2020).
Entries after “also recorded” stand apart in the source; their conditions may differ.

Tests used:
solubility in water = assay type: physicochemical
[1] = variable-temperature powder X-ray diffraction, crystal form stability at high temperatures; assay type: physicochemical; details: heated from 30° C. to 80° C.; powder X-ray diffraction at 35, 45, 55, 65 and 75° C.
Description: The crystalline form I of (R)-4-hydroxy-2-oxo-1-pyrrolidineacetamide of the invention was placed on a single crystal silicon sample stage, heated from 30° C. to 80° C., and subjected to powder X-ray diffraction measurement at 35° C., 45° C., 55° C., 65° C. and 75° C., respectively. […] It can be seen that the crystalline form I of (R)-4-hydroxy-2-oxo-1-pyrrolidineacetamide of the invention has good stability at high temperatures. When the crystalline form I of (R)-4-hydroxy-2-oxo-1-pyrrolidineacetamide of the invention is used for storage or formulation processing, the requirements on processing and storage temperatures are reduced.

SMILES: NC(=O)CN1C[C@H](O)CC1=O [crystalline form I, (R)-4-hydroxy-2-oxo-1-pyrrolidineacetamide]
- solubility (solubility in water): ≥ 90 mg/mL
- crystal transformation on heating (stability at high temperatures) [1]: does not show a phenomenon of crystal transformation; also recorded: does not exhibit crystal transformation phenomenon
